These are literature values, as cited in patent US20080312245A1, “Methods and compositions for treating acne and other infectious diseases” (priority 2007, published 2008).

On to `Cc1ncc([N+](=O)[O-])n1CCO` [Metronidazole, 2-methyl-5-nitro-1H-imidazole-1-ethanol], for which the solubility in alcohol result is reported as “slightly soluble”.
